Data: patent publication US20230295166A1, “ATR INHIBITORS AND USES THEREOF” (ANTENGENE DISCOVERY LIMITED, priority 2020, published 2023)
pIC50: −log10 of the molar value.

Experiments:
ATR kinase = ATR kinase (Homo sapiens (Human), UniProt Q13535); assay: ATR inhibition assay (mobility shift assay, phosphorylation of FAM-RAD17); type: biochemical; details: ATR kinase (Eurofins), substrate FAM-RAD17, mobility shift
Protocol: Assay 1: ATR Inhibition Assay
Detection of ATR kinase activity utilized the Mobility shift assay to measure the phosphorylation of the substrate protein FAM-RAD17 (GL, Cat. No. 514318, Lot. No. P19042-MJ524315). The assay was developed and conducted at Chempartner. All the test compounds were dissolved in 100% DMSO at concentration of 20 mM, then prepare compounds and conducted the assay as follows: • 1) Transfer 80 μl 20 mM compound to 40 μl of 100% DMSO in a 96-well plate. • 2) Serially dilute the compound by transferring 20 μl to 60 μl of 100% DMSO in the next well and so forth for a total of 10 concentrations. • 3) Add 100 μl of 100% DMSO to two empty wells for no compound control and no enzyme control in the same 96-well plate. Mark the plate as source plate. • 4) Transfer 40 μl of compound from source plate to a new 384-well plate as the intermediate plate. • 5) Transfer 60 nl compounds to assay plate by Echo. • 6) Add ATR kinase (Eurofins, Cat. No. 14-953, Lot. No. D14 JP007N) into Kinase base buffer (50 mM HEPES, pH 7.5; 0.0015% Brij-35; 0.01% Triton) to prepare 2× enzyme solution, then add 10 μl of 2× enzyme solution to each well of the 384-well assay plate, incubate at room temperature for 10 min. • 7) Add FAM-RAD17 and ATP (Sigma, Cat. No. A7699-1G, CAS No. 987-65-5) in the kinase base buffer to prepare 2×peptide solution, then add 10 μl to the assay plate. • 8) Incubate at 28° C. for specified period of time. Add 40 μl of stop buffer (100 mM HEPES, pH 7.5; 0.015% Brij-35; 0.2% Coating Reagent #3; 50 mM EDTA) to stop reaction. • 9) Collect data on Caliper. Convert conversion values to inhibition values.
Percent inhibition=(max−conversion)/(max−min)*100 wherein “max” stands for DMSO control; “min” stands for low control.
Fit the data in XLFit excel add-in version 5.4.0.8 to obtain IC50 values. Equation used is:
Y=Bottom+(Top−Bottom)/(1+(IC50/X)^HillSlope) wherein X means concentration in a format not transformed to logarithms.

LoVo (CCL-229) cells = assay: Tumor cell anti-proliferation assay (CTG assay); type: cell-based; details: LoVo human colorectal cancer cells, 96 h, CellTiter-Glo
Protocol: Assay 2: Tumor Cell Anti-proliferation Assay (CTG Assay)
Human colorectal cancer cells HT-29 (HTB-38) and LoVo (CCL-229) were selected for the CTG assay, the two cell lines were originally obtained from the American Type Culture Collection (ATCC). FBS and appropriate additives were added into base medium to prepare complete medium, then the cell layer was briefly rinsed with 0.25% (w/v) Trypsin-0.038% (w/v) EDTA solution to remove all traces of serum that contains trypsin inhibitor. After that, appropriate volume of Trypsin-EDTA solution was added to flask and cells under an inverted microscope were observed until cell layer was dispersed. At last, appropriate volume of complete growth medium was added and cells were aspirated by gently pipetting. Numbers were collected and counted with Vi-cell XR and cell density was adjusted, cells were seeded into 96-well opaque-walled clear bottom tissue-culture treated plates in the CO2 incubator for 20-24 hours. All the test compounds were at 10 mM in DMSO. Compounds were then added to the cell media in 3-fold serial dilutions, the final DMSO concentration was 0.5%. Plates were incubated for 96 h at 5% CO2, 37° C. Before the measurement, the appropriate volume of CellTiter-Glo Buffer was transferred into the amber bottle containing CellTiter-Glo substrate to reconstitute the lyophilized enzyme/substrate mixture, mixed gently, thereby forming the CellTiter-Glo Reagent (Promega Cat. No. G7573). The plate and its contents were equilibrated to room temperature for approximately 30 minutes, then 100 μL of CellTiter-Glo Reagent was added to the assay plate, the contents were mixed for 2 minutes on an orbital shaker to induce cell lysis, incubated at room temperature for 10 minutes to stabilize luminescent signal. At last the clear bottom was pasted with white back seal and luminescence was recorded with Enspire. IC50 and GI50 values were calculated with XLFit curve fitting software using 4 Parameter Logistic Model Y=Bottom+(Top−Bottom)/(1+(IC50/X)^HillSlope).

Sequence of ATR kinase (Q13535 whole entry): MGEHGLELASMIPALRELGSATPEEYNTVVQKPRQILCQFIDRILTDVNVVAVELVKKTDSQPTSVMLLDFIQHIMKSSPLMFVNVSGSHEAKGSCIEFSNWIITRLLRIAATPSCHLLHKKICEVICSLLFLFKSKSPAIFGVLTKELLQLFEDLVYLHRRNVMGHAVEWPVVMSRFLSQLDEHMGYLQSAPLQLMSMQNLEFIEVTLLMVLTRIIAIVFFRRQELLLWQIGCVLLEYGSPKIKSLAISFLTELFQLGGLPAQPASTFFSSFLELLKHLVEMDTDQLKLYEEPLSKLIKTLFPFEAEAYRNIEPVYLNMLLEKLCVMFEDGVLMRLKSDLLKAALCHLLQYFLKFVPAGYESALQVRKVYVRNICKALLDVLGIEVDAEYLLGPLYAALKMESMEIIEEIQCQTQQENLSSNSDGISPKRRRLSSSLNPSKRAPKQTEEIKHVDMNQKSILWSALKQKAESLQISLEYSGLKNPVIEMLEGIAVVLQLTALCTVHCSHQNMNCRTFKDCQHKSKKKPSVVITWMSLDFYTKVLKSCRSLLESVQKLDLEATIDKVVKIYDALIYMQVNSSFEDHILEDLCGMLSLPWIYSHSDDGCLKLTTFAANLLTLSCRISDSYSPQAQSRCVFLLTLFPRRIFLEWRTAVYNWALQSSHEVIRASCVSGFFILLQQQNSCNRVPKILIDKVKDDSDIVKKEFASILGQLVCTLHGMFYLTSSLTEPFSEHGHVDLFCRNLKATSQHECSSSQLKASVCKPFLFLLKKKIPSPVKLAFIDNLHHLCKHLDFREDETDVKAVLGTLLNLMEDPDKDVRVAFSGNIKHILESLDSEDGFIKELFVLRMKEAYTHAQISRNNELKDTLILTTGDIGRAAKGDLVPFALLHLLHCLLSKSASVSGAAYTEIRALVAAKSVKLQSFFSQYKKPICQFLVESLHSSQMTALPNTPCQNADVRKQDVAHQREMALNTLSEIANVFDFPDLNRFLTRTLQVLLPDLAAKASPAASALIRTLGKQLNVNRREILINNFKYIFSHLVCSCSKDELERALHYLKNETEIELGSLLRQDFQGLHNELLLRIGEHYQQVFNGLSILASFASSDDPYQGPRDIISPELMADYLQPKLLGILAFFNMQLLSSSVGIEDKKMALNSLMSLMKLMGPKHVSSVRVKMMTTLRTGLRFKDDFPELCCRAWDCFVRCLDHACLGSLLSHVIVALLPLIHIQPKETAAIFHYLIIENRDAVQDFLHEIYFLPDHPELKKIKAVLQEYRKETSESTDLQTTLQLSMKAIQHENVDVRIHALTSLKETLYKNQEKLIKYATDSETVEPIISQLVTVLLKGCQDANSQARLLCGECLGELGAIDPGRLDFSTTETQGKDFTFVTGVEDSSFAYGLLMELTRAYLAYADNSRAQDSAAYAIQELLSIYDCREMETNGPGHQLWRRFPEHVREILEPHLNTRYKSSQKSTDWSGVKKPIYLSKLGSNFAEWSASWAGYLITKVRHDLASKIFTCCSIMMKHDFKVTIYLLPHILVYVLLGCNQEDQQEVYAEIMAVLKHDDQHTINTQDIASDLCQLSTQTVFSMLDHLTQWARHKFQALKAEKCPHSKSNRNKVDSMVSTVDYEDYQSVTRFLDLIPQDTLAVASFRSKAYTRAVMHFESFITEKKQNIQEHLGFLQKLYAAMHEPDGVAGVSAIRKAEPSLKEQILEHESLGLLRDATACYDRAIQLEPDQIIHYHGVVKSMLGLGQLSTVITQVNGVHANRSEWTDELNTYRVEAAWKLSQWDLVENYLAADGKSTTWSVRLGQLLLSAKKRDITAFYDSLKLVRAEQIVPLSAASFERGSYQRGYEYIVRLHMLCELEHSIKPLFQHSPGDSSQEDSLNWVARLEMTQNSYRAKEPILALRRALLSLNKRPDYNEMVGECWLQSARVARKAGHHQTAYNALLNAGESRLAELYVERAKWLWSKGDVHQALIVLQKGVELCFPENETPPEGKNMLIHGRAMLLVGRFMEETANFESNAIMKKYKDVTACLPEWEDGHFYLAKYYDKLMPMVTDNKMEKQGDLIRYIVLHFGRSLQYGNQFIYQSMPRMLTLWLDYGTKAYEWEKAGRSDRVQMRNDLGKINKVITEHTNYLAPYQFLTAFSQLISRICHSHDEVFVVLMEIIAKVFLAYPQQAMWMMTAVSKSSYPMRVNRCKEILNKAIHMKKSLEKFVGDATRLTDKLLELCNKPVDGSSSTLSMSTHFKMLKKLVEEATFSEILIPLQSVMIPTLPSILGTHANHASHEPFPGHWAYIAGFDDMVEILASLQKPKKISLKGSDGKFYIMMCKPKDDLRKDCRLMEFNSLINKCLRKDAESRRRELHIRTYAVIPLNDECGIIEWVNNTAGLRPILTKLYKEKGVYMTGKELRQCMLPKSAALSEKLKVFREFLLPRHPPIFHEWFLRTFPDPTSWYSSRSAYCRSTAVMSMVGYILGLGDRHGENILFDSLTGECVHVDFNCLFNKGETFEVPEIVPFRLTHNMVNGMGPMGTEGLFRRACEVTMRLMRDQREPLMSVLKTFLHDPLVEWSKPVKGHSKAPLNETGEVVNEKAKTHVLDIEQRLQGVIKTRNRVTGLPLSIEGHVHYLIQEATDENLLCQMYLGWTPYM
Sequence of ATR kinase (Q8WXE1 whole entry partner): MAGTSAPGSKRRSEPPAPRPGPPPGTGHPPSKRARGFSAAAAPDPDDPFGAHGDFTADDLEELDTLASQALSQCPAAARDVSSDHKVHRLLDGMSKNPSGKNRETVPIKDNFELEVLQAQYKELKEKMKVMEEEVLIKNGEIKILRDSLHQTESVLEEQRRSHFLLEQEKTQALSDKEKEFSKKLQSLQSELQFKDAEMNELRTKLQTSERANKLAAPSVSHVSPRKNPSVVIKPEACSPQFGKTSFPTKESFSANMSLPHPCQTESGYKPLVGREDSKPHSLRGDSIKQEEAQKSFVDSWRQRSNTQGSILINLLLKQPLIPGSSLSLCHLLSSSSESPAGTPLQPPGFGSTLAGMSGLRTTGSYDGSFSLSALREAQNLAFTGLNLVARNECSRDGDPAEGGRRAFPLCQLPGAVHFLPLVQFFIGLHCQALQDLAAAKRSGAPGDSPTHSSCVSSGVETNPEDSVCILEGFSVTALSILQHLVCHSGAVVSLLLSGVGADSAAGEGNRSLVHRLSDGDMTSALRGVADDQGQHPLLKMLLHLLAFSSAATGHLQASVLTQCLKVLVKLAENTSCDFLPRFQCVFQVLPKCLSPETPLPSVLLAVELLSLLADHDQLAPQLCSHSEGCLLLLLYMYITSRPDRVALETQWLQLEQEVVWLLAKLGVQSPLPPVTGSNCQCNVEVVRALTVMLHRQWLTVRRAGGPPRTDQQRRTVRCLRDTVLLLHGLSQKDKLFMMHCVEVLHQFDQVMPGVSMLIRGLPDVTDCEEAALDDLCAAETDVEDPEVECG

| Structure (SMILES) | pIC50 (ATR kinase) | pIC50 (LoVo (CCL-229) cells) |
| --- | --- | --- |
| C[C@@H]1COCCN1c1cc(-c2ccnn2C)n2ncc(-c3cn[nH]c3)c2n1 [Example 2, (R)-3-methyl-4-(7-(1-methyl-1H-pyrazol-5-yl)-3-(1H-pyrazol-4-yl)pyrazolo [1,5-a]pyrimidin-5-yl)morpholine] | < 6.30 |  |
| C[C@@H]1COCCN1c1cc(-c2ccnn2C)n2ncc(-c3cccnc3)c2n1 [Example 3, (R)-3-methyl-4-(7-(1-methyl-1H-pyrazol-5-yl)-3-(pyridin-3-yl)pyrazolo[1,5-a]pyrimidin-5-yl)morpholine] | 6.30 to 7.00 |  |
| C[C@@H]1COCCN1c1cc(-c2ccnn2C)n2ncc(-c3ccc[nH]3)c2n1 [Example 4, (R)-3-methyl-4-(7-(1-methyl-1H-pyrazol-5-yl)-3-(1H-pyrrol-2-yl)pyrazolo[1,5-a]pyrimidin-5-yl)morpholine] | > 7.00 |  |
| C[C@@H]1COCCN1c1cc(C2([S@](C)(=N)=O)CC2)n2ncc(-c3ccn[nH]3)c2n1 [Example 7a, (R)-imino(methyl)(1-(5-((R)-3-methylmorpholino)-3-(1H-pyrazol-5-yl)pyrazolo[1,5-a]pyrimidin-7-yl)cyclopropyl)-λ6-sulfanone] | > 7.00 |  |
| C[C@@H]1COCCN1c1cc(C2([S@@](C)(=N)=O)CC2)n2ncc(-c3ccn[nH]3)c2n1 [Example 7b, (S)-imino(methyl)(1-(5-((R)-3-methylmorpholino)-3-(1H-pyrazol-5-yl)pyrazolo[1,5-a]pyrimidin-7-yl)cyclopropyl)-λ6-sulfanone] | > 7.00 |  |
| C[C@@H]1COCCN1c1cc(C2(S(C)(=O)=O)CC2)n2ncc(-c3ccc[nH]3)c2n1 [Example 8, (R)-3-methyl-4-(7-(1-(methylsulfonyl)cyclopropyl)-3-(1H-pyrrol-2-yl)pyrazolo[1,5-a]pyrimidin-5-yl)morpholine] | > 7.00 |  |
| Cc1cc(-c2nsc3c(C4(O)CCCCC4)cc(N4CCOC[C@H]4C)nc23)[nH]n1 [Example 86, (R)-1-(3-(3-methyl-1H-pyrazol-5-yl)-5-(3-methylmorpholino)isothiazolo[4,5-b]pyridin-7-yl)cyclohexan-1-ol] |  | 8.05 |
| Cc1cc(-c2nsc3c(C4(C(N)=O)CCCCC4)cc(N4CCOC[C@H]4C)nc23)[nH]n1 [Example 88, (R)-1-(3-(3-methyl-1H-pyrazol-5-yl)-5-(3-methylmorpholino)isothiazolo[4,5-b]pyridin-7-yl)cyclohexane-1-carboxamide] |  | 9.00 |
| C[C@@H]1COCCN1c1cc(C2(C(N)=O)CCCC2)c2snc(-c3ccn[nH]3)c2n1 [Example 90, 1-{5-[(3R)-3-methylmorpholin-4-yl]-3-(1H-pyrazol-5-yl)-[1,2]thiazolo[4,5-b]pyridin-7-yl}cyclopentane-1-carboxamide] |  | 8.30 |
| C[C@@H]1COCCN1c1cc(C2(O)CCCCC2)c2snc(-c3ccn[nH]3)c2n1 [Example 91, (R)-1-(5-(3-methylmorpholino)-3-(1H-pyrazol-5-yl)isothiazolo[4,5-b]pyridin-7-yl)cyclohexan-1-ol] |  | 8.70 |
| COC(=O)C1(c2cc(N3CCOC[C@H]3C)nc3c(-c4ccn[nH]4)nsc23)CCCC1 [Example 92] |  | 7.03 |
| Cc1cc(-c2nsc3c(C4(S(C)(=N)=O)CC4)cc(N4CCOC[C@H]4C)nc23)[nH]n1 (stereo partly drawn) [Example 94, imino(methyl)(1-(3-(3-methyl-1H-pyrazol-5-yl)-5-((R)-3-methylmorpholino)isothiazolo[4,5-b]pyridin-7-yl)cyclopropyl)-16-sulfanone] |  | 7.92 |
| Cc1cc(-c2nsc3c(-c4ccccc4S(C)(=O)=O)cc(N4CCOC[C@H]4C)nc23)[nH]n1 [Example 95, (3R)-4-[7-(2-methanesulfonylphenyl)-3-(3-methyl-1H-pyrazol-5-yl)-[1,2]thiazolo[4,5-b]pyridin-5-yl]-3-methylmorpholine] |  | 7.44 |
| Cc1cc(-c2nsc3c(-c4cccnc4C(F)(F)F)cc(N4CCOC[C@H]4C)nc23)[nH]n1 [Example 96, (3R)-3-methyl-4-[3-(3-methyl-1H-pyrazol-5-yl)-7-[2-(trifluoromethyl)pyridin-3-yl]-[1,2]thiazolo[4,5-b]pyridin-5-yl]morpholine] |  | 7.49 |
| Cc1cc(-c2nsc3c(C(C)(C)CO)cc(N4CCOC[C@H]4C)nc23)[nH]n1 [Example 97, (R)-2-methyl-2-(3-(3-methyl-1H-pyrazol-5-yl)-5-(3-methylmorpholino)isothiazolo[4,5-b]pyridin-7-yl)propan-1-ol] |  | 8.00 |
| Cc1cc(-c2nsc3c(C4(CO)CC4)cc(N4CCOC[C@H]4C)nc23)[nH]n1 [Example 98, (R)-(1-(3-(3-methyl-1H-pyrazol-5-yl)-5-(3-methylmorpholino)isothiazolo[4,5-b]pyridin-7-yl)cyclopropyl)methanol] |  | 7.85 |
| C[C@@H]1COCCN1c1cc(C(C)(C)CO)c2snc(-c3ccn[nH]3)c2n1 [Example 100, (R)-2-methyl-2-(5-(3-methylmorpholino)-3-(1H-pyrazol-5-yl)isothiazolo[4,5-b]pyridin-7-yl)propan-1-ol] |  | 7.80 |
| C[C@@H]1COCCN1c1cc(-c2cccnc2C(F)(F)F)c2snc(-c3ccn[nH]3)c2n1 [Example 101, (3R)-3-methyl-4-[3-(1H-pyrazol-5-yl)-7-[2-(trifluoromethyl)pyridin-3-yl]-[1,2]thiazolo[4,5-b]pyridin-5-yl]morpholine] |  | 7.81 |
| Cc1cc(-c2nsc3c(-c4ncnn4C)cc(N4CCOC[C@H]4C)nc23)[nH]n1 [Example 102, (R)-3-methyl-4-(7-(1-methyl-1H-1,2,4-triazol-5-yl)-3-(3-methyl-1H-pyrazol-5-yl)isothiazolo[4,5-b]pyridin-5-yl)morpholine] |  | 7.59 |
| Cc1cc(-c2nsc3c(Cl)cc(N4CCOC[C@H]4C)nc23)[nH]n1 [Example 104, (R)-4-(7-chloro-3-(3-methyl-1H-pyrazol-5-yl)isothiazolo[4,5-b]pyridin-5-yl)-3-methylmorpholine] |  | 6.81 |
| Cc1cc(-c2nsc3c(C4(CO)CCOCC4)cc(N4CCOC[C@H]4C)nc23)[nH]n1 [Example 105, (R)-(4-(3-(3-methyl-1H-pyrazol-5-yl)-5-(3-methylmorpholino)isothiazolo[4,5-b]pyridin-7-yl)tetrahydro-2H-pyran-4-yl)methanol] |  | 8.05 |
| Cc1cc(-c2nsc3c(C4(O)CCCC4)cc(N4CCOC[C@H]4C)nc23)[nH]n1 [Example 106, (R)-1-(3-(3-methyl-1H-pyrazol-5-yl)-5-(3-methylmorpholino)isothiazolo[4,5-b]pyridin-7-yl)cyclopentan-1-ol] |  | 7.34 |
| CCn1nncc1-c1cc(N2CCOC[C@H]2C)nc2c(-c3cc(C)n[nH]3)nsc12 [Example 107, (3R)-4-[7-(1-ethyl-1H-1,2,3-triazol-5-yl)-3-(3-methyl-1H-pyrazol-5-yl)-[1,2]thiazolo[4,5-b]pyridin-5-yl]-3-methylmorpholine] |  | 7.82 |
| Cc1cc(-c2nsc3c(P(C)(C)=O)cc(N4CCOC[C@H]4C)nc23)n(C2CCCCO2)n1 (stereo partly drawn) [Example 108, dimethyl(3-(3-methyl-1-(tetrahydro-2H-pyran-2-yl)-1H-pyrazol-5-yl)-5-((R)-3-methylmorpholino)isothiazolo[4,5-b]pyridin-7-yl)phosphine oxide] |  | 7.46 |
